Experimental data taken from ChEMBL document CHEMBL1201862, “PubChem BioAssay data set” (2004).
Active and inactive are the calls of the source.

Tests used:
Caspase-3 = biological target: T1, Caspase-3 (Homo sapiens, UniProt P42574); assay: procaspase-3 activation potency of dual hits, dose response, counter-screen for dual procaspase-3/7 activator project, biochemical, absorbance, PC-3 D3A mutant (AID 504328)
T1 sequence (P42574 whole entry): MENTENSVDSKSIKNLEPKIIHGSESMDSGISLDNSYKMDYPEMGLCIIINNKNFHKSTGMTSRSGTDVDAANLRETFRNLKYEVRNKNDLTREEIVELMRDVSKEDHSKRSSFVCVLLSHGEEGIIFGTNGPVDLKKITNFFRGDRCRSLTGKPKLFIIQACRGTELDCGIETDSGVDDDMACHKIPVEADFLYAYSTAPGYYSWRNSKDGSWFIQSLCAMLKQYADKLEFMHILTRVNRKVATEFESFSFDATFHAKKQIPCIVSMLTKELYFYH

Caspase-7 = Caspase-7 (Homo sapiens, UniProt P55210); assay: procaspase-7 activators, dose response, dual procaspase-3/-7 activator project, biochemical, absorbance, human (AID 504330)
[1] = biological target: T2, Short transient receptor potential channel 4 (Mus musculus, UniProt Q9QUQ5); assay: mouse TRPC4 channel inhibitors, dose response, cell-based, HEK293 TRPC4/mu-opioid, Fluo-4 calcium (AID 434942); type: functional;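 also: potency of inhibitors blocking the TRPC4 calcium response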
T2 sequence (Q9QUQ5 whole entry): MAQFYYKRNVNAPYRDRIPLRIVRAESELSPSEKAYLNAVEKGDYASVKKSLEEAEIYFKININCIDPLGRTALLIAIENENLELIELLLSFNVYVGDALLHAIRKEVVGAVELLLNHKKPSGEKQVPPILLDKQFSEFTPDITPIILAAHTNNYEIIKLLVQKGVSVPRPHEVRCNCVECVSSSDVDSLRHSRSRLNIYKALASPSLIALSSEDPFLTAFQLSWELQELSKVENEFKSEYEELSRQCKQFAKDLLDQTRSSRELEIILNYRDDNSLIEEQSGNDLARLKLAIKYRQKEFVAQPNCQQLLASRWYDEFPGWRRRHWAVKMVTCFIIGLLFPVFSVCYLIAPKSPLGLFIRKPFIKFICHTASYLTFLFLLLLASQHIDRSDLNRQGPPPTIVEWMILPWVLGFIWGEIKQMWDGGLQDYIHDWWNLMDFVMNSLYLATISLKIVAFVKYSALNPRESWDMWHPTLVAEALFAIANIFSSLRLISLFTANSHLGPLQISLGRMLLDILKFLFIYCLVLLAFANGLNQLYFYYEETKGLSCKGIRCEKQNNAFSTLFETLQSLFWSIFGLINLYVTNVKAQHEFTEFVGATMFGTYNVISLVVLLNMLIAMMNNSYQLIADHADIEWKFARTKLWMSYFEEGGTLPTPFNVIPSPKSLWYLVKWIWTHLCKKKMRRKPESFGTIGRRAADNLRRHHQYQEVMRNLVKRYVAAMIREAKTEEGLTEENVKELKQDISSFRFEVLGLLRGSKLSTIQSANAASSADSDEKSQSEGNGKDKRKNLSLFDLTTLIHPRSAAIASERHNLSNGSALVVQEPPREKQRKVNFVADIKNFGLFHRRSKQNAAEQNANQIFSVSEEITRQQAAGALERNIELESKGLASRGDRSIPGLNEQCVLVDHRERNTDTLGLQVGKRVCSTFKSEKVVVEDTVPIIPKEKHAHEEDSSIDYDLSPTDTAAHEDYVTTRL

Prothrombin = Prothrombin (Homo sapiens, UniProt P00734); assay: Thrombin 1536 HTS Dose Response Confirmation. [Related pubchem assays: 1046 (Thrombin 1536 HTS; hits were confirmed in this assay)]; type: functional
Protein skinhead-1 = biological target: T3, Protein skinhead-1 (Caenorhabditis elegans, UniProt P34707); type: functional
T3 sequence (P34707 whole entry): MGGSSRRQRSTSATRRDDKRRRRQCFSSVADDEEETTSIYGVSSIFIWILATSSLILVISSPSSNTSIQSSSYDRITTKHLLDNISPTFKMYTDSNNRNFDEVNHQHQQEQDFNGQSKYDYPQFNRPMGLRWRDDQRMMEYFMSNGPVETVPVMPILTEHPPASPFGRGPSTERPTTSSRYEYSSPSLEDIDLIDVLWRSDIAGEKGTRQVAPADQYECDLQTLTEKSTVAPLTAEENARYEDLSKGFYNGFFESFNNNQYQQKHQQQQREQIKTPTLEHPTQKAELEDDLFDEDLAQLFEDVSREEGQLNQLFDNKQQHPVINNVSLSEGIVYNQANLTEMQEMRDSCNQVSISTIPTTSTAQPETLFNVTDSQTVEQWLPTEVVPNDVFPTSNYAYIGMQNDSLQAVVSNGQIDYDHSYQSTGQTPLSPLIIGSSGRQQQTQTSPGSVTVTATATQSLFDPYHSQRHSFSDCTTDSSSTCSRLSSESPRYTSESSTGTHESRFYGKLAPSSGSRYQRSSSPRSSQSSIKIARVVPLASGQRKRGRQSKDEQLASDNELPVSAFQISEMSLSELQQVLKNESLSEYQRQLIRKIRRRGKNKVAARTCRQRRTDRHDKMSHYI

[2] = biological target: T4, Voltage-dependent T-type calcium channel subunit alpha-1H (Homo sapiens, UniProt O95180); assay: Inhibitors of T-Type Calcium Channels. [Related pubchem assays (depositor defined):AID449739, AID463087, AID489005, AID493041, AID504579, AID504584, AID504619, AID504628]; type: functional
[3] = biological target: T4, Voltage-dependent T-type calcium channel subunit alpha-1H; type: functional
Coagulation factor XII = biological target: T5, Coagulation factor XII (Homo sapiens, UniProt P00748); type: functional;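 also: activated factor XIIa alpha cleaving a fluorogenic AMC peptide substrate; inhibitor potency from loss of enzyme activity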
T5 sequence (P00748 whole entry): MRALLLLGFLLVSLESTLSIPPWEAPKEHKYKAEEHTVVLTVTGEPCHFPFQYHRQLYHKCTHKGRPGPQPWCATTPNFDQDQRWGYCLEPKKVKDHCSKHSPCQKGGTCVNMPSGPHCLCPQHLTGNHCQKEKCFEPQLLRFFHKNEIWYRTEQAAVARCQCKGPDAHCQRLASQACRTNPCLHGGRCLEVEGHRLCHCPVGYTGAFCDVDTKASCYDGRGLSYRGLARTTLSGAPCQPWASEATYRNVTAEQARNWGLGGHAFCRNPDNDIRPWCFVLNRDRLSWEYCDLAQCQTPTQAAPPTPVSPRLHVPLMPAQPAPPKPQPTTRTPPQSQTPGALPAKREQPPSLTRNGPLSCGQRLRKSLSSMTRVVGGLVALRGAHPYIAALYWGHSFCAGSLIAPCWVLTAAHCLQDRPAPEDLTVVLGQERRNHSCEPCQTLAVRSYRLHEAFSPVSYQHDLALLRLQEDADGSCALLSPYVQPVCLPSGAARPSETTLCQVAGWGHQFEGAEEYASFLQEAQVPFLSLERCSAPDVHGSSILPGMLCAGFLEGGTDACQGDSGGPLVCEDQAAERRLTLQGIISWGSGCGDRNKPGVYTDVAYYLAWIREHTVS

[4] = THP-1 cell cytotoxicity, dose response, cytotoxicity control for non-replicating M. tuberculosis project (AID 489025); type: functional
[5] = A549 cell cytotoxicity, dose response, cytotoxicity control, plate reader, cherry-pick, antagonist series (AID 743412); type: functional, cell-based
[6] = LGR2 antagonists, dose response, cell-based, HEK293, CRE-luciferase reporter, cherry pick, set 2 (AID 743343); type: functional;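 also: transfected cells were stimulated with diluted bursicon conditioned medium after compound addition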
[7] = biological target: T6, Microphthalmia-associated transcription factor (Homo sapiens, UniProt O75030); assay: TRPM1 promoter luciferase signal decrease, dose response, MITF inhibitor project, cell-based, SK-MEL-5, cherry-picked, set 3 (AID 493073); type: functional
T6 sequence (O75030 whole entry): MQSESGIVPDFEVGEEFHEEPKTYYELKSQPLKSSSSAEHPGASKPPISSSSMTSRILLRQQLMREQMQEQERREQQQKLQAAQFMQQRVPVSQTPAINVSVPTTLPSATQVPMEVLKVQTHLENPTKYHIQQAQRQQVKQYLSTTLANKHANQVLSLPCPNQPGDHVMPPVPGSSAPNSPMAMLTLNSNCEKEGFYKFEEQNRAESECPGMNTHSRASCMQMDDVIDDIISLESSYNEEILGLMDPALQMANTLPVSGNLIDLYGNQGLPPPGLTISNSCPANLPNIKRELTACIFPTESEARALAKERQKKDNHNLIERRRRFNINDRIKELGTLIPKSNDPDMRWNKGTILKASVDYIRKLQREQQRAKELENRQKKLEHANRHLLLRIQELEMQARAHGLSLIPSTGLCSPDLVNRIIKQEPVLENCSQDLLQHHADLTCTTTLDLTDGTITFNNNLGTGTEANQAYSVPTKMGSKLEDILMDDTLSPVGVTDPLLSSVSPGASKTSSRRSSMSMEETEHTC

[8] = MC4R antagonists, dose response, counter-screen for LGR2 antagonist project, cell-based, plate reader, cherry pick (AID 743444); type: functional;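 also: transfected HEK 293 cells stimulated with alpha-MSH peptide; potency of inhibitors of the alpha-MSH evoked signal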
[9] = Luminescence Cell-Based Dose Retest to Confirm Inhibitors of Cancer Stem Cells. [Related pubchem assays (depositor defined):AID2717, AID2721]; type: functional; settings: Homo sapiens
[10] = HEK293 cell cytotoxicity, dose response, cytotoxicity control, plate reader, cherry-picked samples (AID 743446); type: functional, cell-based
[11] = HepG2 cell cytotoxicity, dose response, cytotoxicity control for non-replicating M. tuberculosis project (AID 489018); type: functional; settings: Mycobacterium tuberculosis
[12] = biological target: Neurotensin receptor type 1 (Homo sapiens, UniProt P30989); type: functional;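 also: Image-based confirmatory dose-response assay measuring agonist activity at NTR1; NTR1-expressing U2OS osteosarcoma cells imaged for beta-arrestin GFP spot formation; agonist potency where compounds increase beta-arrestin recruitment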
[13] = biological target: T7, Calpain-2 catalytic subunit (Sus scrofa, UniProt P43367); assay: pig calpain II inhibitor potency, dose response, biochemical, fluorogenic peptide substrate (AID 1420); type: functional
T7 sequence (P43367 whole entry): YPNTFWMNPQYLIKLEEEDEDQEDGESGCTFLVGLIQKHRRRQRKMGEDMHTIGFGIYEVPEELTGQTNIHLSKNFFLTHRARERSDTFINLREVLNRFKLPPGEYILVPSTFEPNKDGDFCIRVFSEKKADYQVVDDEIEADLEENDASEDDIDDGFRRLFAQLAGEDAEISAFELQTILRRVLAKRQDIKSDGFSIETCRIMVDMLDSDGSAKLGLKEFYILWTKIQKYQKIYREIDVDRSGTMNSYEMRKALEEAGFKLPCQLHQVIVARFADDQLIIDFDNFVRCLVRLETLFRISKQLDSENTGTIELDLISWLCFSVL

[14] = ADAM10 inhibitors, peptide cleavage, dose response, biochemical, QFRET (AID 743254);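 also: ADAM10 enzyme with the DM2 quenched FRET peptide as substrate; EDANS fluorescence gain as the protease cuts the substrate; inhibitor potency against ADAM10 proteolytic activity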
Paired box protein Pax-8 = Paired box protein Pax-8 (Homo sapiens, UniProt Q06710); assay: inhibitors of PAX8-driven TPO luciferase reporter, dose response, RMG-I cells, cherry-pick (AID 687027); type: functional, cell-based;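 also: luciferase reporter driven by Pax8 target thyroperoxidase promoter measured by SteadyGlo luminescence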
[15] = non-specific cell cytotoxicity, dose response, cytotoxicity control for PAX8 inhibitor project, plate reader, dry powder samples (AID 743021); type: functional, cell-based
cells = type: functional
[16] = Vero E6 cell cytotoxicity, dose response, cytotoxicity control for non-replicating M. tuberculosis project, secondary assay (AID 492998); type: functional, VeroE6; settings: Vero C1008
A-375 = assay: A375 melanoma cell viability reduction, dose response, counter-screen for MITF modulator project, cherry-pick samples, set 2 (AID 540335); type: functional, cell-based; settings: Homo sapiens
[17] = microbe, parasite or virus in culture; type: functional; settings: Mycobacterium tuberculosis
[18] = biological target: Disintegrin and metalloproteinase domain-containing protein 17 (Homo sapiens, UniProt P78536); assay: ADAM17 protease inhibitors, dose response, counter-screen for ADAM10 exosite inhibitor project, biochemical, quenched FRET substrate (AID 743253)
[19] = HepG2 cell cytotoxicity, dose response, cytotoxicity control, plate reader, cherry-pick, antagonist series (AID 743416); type: functional, cell-based

T4 sequence (O95180 whole entry): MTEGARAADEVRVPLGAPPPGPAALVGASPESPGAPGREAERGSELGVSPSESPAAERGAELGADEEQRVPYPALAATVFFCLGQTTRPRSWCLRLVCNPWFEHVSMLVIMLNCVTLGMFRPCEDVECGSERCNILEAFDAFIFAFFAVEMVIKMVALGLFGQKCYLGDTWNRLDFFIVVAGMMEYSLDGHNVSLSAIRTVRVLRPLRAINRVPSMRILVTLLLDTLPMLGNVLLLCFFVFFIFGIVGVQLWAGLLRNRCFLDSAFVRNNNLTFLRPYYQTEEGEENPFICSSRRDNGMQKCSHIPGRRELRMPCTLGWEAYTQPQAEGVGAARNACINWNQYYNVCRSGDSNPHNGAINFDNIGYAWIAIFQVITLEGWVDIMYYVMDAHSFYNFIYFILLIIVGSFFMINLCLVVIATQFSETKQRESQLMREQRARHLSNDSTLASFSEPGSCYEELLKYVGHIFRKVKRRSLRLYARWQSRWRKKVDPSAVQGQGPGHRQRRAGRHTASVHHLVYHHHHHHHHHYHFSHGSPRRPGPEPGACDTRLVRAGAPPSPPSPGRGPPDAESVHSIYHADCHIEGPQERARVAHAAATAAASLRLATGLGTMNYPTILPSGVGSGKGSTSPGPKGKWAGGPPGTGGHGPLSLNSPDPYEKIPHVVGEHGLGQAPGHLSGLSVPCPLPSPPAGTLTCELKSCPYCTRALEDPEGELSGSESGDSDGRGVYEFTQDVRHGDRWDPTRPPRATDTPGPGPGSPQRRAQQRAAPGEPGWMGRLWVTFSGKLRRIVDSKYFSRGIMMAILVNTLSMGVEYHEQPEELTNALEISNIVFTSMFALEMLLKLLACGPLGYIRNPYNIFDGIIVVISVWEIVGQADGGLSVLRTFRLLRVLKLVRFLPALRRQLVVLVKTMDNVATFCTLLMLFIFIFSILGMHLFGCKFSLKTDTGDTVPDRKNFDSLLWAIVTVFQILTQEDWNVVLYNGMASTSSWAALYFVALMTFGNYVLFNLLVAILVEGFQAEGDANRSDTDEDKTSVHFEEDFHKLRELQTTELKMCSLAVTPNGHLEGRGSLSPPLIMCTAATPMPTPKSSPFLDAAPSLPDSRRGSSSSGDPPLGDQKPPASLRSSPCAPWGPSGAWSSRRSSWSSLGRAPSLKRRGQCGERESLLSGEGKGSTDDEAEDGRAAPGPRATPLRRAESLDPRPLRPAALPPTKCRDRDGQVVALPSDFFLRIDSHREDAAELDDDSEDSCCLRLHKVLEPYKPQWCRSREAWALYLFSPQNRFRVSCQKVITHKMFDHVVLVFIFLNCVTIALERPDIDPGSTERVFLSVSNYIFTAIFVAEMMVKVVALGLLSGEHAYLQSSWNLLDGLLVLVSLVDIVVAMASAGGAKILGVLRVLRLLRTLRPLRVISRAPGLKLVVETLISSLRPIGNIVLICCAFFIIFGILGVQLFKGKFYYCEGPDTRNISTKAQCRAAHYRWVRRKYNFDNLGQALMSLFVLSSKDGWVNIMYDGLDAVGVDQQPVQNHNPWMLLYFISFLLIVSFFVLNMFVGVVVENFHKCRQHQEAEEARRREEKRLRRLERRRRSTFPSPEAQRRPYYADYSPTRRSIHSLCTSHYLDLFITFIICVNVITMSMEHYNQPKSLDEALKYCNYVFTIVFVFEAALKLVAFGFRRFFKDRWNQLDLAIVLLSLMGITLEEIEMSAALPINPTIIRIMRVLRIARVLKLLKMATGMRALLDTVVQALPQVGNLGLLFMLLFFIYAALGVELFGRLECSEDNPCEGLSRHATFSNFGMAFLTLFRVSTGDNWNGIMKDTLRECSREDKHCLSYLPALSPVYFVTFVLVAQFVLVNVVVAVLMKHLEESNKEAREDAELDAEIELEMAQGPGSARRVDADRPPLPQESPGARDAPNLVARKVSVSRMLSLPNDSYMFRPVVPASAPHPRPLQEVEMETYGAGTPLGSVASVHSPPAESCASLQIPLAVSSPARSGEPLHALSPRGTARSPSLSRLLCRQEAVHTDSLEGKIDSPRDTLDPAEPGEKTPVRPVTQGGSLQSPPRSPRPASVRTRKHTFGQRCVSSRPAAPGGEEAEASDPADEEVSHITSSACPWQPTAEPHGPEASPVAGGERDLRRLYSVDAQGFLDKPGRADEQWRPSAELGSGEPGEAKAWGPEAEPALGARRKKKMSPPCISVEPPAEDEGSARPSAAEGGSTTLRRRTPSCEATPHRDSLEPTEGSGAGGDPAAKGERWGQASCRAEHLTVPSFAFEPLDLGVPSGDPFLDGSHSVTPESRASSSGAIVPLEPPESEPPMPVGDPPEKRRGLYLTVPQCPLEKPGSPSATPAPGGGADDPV
Sequence of Neurotensin receptor type 1 (P30989 whole entry): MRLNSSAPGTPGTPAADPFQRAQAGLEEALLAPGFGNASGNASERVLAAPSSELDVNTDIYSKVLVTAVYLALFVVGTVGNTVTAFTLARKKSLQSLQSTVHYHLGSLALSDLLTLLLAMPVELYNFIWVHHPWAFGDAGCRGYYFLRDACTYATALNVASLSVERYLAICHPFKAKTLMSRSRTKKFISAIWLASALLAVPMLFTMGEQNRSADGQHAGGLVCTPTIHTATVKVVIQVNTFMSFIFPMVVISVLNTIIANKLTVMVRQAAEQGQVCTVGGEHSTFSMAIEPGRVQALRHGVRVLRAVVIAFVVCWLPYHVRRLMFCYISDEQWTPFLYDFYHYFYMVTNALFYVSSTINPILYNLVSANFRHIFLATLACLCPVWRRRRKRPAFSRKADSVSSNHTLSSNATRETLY
Sequence of Disintegrin and metalloproteinase domain-containing protein 17 (P78536 whole entry, the tested form may be a part): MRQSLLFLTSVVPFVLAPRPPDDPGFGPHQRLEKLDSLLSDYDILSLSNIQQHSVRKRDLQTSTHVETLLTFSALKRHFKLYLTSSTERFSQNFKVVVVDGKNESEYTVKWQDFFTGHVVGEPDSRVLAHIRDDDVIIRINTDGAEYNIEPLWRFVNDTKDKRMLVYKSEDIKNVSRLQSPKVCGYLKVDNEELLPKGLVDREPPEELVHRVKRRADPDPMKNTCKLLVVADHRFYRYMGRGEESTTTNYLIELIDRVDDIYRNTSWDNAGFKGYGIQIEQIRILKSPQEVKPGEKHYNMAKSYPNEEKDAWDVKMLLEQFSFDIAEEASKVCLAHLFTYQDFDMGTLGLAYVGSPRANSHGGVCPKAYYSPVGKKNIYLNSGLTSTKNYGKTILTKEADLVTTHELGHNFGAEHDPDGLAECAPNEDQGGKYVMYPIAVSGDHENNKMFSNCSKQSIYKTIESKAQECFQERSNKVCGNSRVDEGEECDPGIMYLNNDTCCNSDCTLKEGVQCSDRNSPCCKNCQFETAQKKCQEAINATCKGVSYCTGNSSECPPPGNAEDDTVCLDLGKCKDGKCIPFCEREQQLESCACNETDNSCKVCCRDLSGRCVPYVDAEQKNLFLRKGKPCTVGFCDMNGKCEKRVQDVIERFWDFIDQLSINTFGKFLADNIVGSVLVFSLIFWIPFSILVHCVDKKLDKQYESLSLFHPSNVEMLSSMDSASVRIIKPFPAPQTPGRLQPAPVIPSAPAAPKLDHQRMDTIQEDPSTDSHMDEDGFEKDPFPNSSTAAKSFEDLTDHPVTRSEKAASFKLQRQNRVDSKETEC
Sequence of Paired box protein Pax-8 (Q06710 whole entry): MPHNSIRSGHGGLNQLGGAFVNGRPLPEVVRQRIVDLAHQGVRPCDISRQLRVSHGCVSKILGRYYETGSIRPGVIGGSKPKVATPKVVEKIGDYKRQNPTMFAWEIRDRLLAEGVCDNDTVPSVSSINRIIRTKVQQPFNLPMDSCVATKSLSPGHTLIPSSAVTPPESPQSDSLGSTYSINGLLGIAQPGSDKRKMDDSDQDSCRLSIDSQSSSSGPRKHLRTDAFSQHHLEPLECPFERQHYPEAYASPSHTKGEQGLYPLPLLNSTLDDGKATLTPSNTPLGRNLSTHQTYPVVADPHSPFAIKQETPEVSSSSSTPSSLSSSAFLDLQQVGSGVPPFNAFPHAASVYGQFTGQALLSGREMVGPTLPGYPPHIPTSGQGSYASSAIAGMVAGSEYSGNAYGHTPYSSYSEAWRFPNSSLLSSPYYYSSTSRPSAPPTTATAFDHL

## CCOC(=O)/C(C#N)=C/Nc1cc(OC)ccc1OC
Caspase-3
  EC50: > 85.3 µM (inactive)
Caspase-7
  EC50: > 85.3 µM (inactive)

## COc1ccc(C(=O)Nc2nc(-c3cccs3)cs2)cc1
[1]
  EC50: 5.31 µM (active)
Prothrombin
  IC50: 1.14 µM (active)
Protein skinhead-1
  IC50: 57.1 µM (inactive)
[2]
  EC50: 1.1 µM (active)
[3]
  EC50: 1.08 µM (active)
Coagulation factor XII
  IC50: > 50 µM (inactive)

## OC(CNCC(c1ccc(Cl)cc1Cl)c1c[nH]c2ccccc12)c1ccccc1 (configuration not stated)
[4]
  CC50: 6.38 µM (active)
[5]
  AC50: 8.71 µM (active)
[6]
  AC50: 19.2 µM (active)
[7]
  AC50: 14.7 µM (active)
[8]
  AC50: 21.1 µM (active)
[9]
  AC50: 2.12 µM (active)
[10]
  AC50: 14.2 µM (active)
[11]
  CC50: 7.75 µM (active)
[12]
  EC50: 15.2 µM (active)
[13]
  IC50: 11.4 µM (not active)
[14]
  IC50: 13.4 µM (inactive)
Paired box protein Pax-8
  AC50: 11.2 µM (active)
[15]
  AC50: 38.2 µM (active)
cells
  IC50: 12.3 µM (active)
[16]
  CC50: 6.27 µM (active)
A-375
  AC50: 14.8 µM (active)
[17]
  CC50: 6.04 µM (active)
[18]
  IC50: > 69.5 µM (inactive)
[19]
  AC50: 8.61 µM (active)
